Assay results published in publication PMC2975748 (Journal of molecular and cellular cardiology, 2010).

Molecular target: cardiac troponin C (cTnC), regulatory N-domain (cNTnC) (Homo sapiens, UniProt P19429+P63316)
Test: 1H, […]-HSQC NMR titration
Type: binding

cardiac troponin C (cTnC), regulatory N-domain (cNTnC), sequence (P63316 1-89): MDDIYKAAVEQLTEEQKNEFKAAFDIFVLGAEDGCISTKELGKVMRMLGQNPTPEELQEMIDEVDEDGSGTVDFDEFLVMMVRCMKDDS
cardiac troponin C (cTnC), regulatory N-domain (cNTnC), sequence (P19429 145-164): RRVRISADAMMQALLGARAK

Kd: 2820 ± 480 µM
SMILES: O=C(O)Cc1ccc(-c2ccc(F)cc2F)cc1 [dfbp, 2’ ,4’-difluoro(1,1’-biphenyl)-4-yl acetic acid]
